Measurements reported in patent US10246453B2, “Benzenesulfonamide compounds and their use as therapeutic agents” (Xenon Pharmaceuticals Inc., priority 2016, dated 2019).
Where a name gives a salt, the structure may show the parent alone. Values belong to the compound of their own block, whether it stands above or below them.

Key:
[1] = target: NaV1.1 (Homo sapiens (Human), UniProt P35498); experiment: Sodium Influx Assay (Flux), NaV1.1; format: cell-based; conditions: Trex HEK293 cells, ANG2 dye; arithmetic mean
[2] = target: NaV1.6 (Homo sapiens (Human), UniProt Q9UQD0); experiment: Sodium Influx Assay (Flux), NaV1.6; conditions: read-out: Flux NaV1.6 IC50; Trex HEK293 cells, ANG2 dye; arithmetic mean
[3] = target: NaV1.5 (Homo sapiens (Human), UniProt Q14524); experiment: Sodium Influx Assay (Flux), NaV1.5; conditions: read-out: Flux NaV1.5 IC50; Trex HEK293 cells, ANG2 dye; arithmetic mean
Sequence of NaV1.5 (Q14524 other isoform, or with tags, fused parts or gaps): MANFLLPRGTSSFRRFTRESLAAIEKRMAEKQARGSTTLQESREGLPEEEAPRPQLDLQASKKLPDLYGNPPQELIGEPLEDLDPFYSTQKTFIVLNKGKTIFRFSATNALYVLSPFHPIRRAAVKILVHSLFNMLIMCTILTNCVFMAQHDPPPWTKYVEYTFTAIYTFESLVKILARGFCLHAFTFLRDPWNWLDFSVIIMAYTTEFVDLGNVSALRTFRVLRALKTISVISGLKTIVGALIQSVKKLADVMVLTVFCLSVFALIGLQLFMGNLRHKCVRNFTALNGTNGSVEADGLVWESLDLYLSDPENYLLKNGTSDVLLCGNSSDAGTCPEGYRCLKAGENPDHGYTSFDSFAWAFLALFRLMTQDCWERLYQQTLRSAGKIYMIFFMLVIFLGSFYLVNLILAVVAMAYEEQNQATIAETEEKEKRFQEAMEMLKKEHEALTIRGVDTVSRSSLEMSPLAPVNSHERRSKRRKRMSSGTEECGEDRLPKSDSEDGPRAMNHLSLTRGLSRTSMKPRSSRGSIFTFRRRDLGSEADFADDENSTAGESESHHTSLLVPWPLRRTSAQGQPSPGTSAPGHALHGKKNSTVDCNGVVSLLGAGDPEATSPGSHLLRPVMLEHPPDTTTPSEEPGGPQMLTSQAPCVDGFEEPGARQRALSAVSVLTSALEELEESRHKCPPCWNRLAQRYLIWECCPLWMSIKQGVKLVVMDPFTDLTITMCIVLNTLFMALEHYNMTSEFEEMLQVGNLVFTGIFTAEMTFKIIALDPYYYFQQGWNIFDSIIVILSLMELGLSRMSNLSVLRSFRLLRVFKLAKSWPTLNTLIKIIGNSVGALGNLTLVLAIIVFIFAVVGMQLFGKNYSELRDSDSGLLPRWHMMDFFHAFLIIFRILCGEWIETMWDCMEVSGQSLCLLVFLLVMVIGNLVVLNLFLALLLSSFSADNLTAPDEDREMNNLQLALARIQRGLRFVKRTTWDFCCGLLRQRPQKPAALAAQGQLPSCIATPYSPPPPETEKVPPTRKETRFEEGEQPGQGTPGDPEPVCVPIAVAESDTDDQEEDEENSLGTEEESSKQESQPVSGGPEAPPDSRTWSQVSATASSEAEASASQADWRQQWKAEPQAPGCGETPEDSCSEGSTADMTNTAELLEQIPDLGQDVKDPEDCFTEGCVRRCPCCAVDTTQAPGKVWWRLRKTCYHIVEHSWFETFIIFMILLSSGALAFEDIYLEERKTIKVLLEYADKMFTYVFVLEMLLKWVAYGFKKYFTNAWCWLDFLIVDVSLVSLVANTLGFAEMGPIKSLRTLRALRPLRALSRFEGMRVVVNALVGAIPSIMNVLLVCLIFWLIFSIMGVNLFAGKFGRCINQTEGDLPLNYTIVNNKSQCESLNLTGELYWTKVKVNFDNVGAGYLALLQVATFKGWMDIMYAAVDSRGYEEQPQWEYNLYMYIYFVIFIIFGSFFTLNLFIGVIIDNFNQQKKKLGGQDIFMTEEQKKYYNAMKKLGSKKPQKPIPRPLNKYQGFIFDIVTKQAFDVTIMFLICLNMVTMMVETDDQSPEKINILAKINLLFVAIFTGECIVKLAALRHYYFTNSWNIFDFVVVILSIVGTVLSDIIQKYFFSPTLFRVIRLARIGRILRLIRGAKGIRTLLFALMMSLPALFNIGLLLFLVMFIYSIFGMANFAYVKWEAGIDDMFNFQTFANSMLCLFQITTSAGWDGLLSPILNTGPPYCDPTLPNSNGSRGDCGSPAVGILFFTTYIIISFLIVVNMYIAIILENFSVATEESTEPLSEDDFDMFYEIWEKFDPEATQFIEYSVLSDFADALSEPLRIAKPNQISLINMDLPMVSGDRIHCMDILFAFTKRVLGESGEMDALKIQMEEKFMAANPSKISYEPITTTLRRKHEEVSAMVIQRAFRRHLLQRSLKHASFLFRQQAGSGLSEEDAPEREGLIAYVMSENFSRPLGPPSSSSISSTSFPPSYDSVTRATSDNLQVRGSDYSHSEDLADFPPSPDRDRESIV

SMILES: O=S(=O)(Nc1nccs1)c1ccc(OC2CCN(Cc3ccc(C(F)(F)F)cc3)CC2)c(Cl)c1 [Example 23, 3-chloro-N-(thiazol-2-yl)-4-((1-(4-(trifluoromethyl)benzyl)piperidin-4-yl)oxy)benzenesulfonamide 2,2,2-trifluoroacetate]
IC50 [1]: > 30 µM | IC50 [2]: > 30 µM | IC50 [3]: 29.6 µM

SMILES: CN(c1ccc(S(=O)(=O)Nc2ncns2)cc1Cl)[C@H]1CCN(Cc2cccc(Cl)c2F)C1 [Example 32, (S)-3-chloro-4-((1-(3-chloro-2-fluorobenzyl)pyrrolidin-3-yl)(methyl)amino)-N-(1,2,4-thiadiazol-5-yl)benzenesulfonamide]
IC50 [1]: 6.55 µM | IC50 [2]: 0.047 µM | IC50 [3]: 7.41 µM

SMILES: Cc1cccc(CN2CC[C@H](N(C)c3ccc(S(=O)(=O)Nc4ncns4)cc3Cl)C2)c1F [Example 34, (S)-3-chloro-4-((1-(2-fluoro-3-methylbenzyl)pyrrolidin-3-yl)(methyl)amino)-N-(1,2,4-thiadiazol-5-yl)benzenesulfonamide 2,2,2-trifluoroacetate]
IC50 [1]: 19.9 µM | IC50 [2]: 0.039 µM | IC50 [3]: > 30 µM

SMILES: Cc1ccc(F)c(CN2CC[C@H](N(C)c3ccc(S(=O)(=O)Nc4ncns4)cc3Cl)C2)c1 [Example 35, (S)-3-chloro-4-((1-(2-fluoro-5-methylbenzyl)pyrrolidin-3-yl)(methyl)amino)-N-(1,2,4-thiadiazol-5-yl)benzenesulfonamide]
IC50 [1]: 15.9 µM | IC50 [2]: 0.021 µM | IC50 [3]: > 30 µM

SMILES: CCN(c1ccc(S(=O)(=O)Nc2ncns2)cc1Cl)[C@H]1CCN(Cc2cccc(C)c2)C1 [Example 37, (S)-3-chloro-4-(ethyl(1-(3-methylbenzyl)pyrrolidin-3-yl)amino)-N-(1,2,4-thiadiazol-5-yl)benzenesulfonamide]
IC50 [1]: > 30 µM | IC50 [2]: 0.195 µM | IC50 [3]: > 30 µM

SMILES: C[C@H](c1ccccc1)N1CC[C@H](N(C)c2cc(F)c(S(=O)(=O)Nc3cccc(F)n3)cc2Cl)C1 [Example 45, 5-chloro-2-fluoro-N-(6-fluoropyridin-2-yl)-4-(methyl((S)-1-((R)-1-phenylethyl)pyrrolidin-3-yl)amino)benzenesulfonamide 2,2,2-trifluoroacetate]
IC50 [1]: 11.2 µM | IC50 [2]: 1.98 µM | IC50 [3]: > 30 µM

Further lines, with some results ahead:

IC50 [1]: 12.6 µM | IC50 [2]: 2.54 µM
SMILES: Cc1ccc(CN2CCC(Oc3ccc(S(=O)(=O)Nc4nccs4)cc3Cl)CC2)cc1 [Example 24, 3-chloro-N-(thiazol-2-yl)-4-((1-(4-methylbenzyl)piperidin-4-yl)oxy)benzenesulfonamide 2,2,2-trifluoroacetate]
IC50 [3]: 13.5 µM

IC50 [1]: 7.97 µM | IC50 [2]: 0.021 µM
SMILES: CN(c1ccc(S(=O)(=O)Nc2ncns2)cc1Cl)[C@H]1CCN(Cc2cccc(Cl)c2)C1 [Example 30, (S)-3-chloro-4-((1-(3-chlorobenzyl)pyrrolidin-3-yl)(methyl)amino)-N-(1,2,4-thiadiazol-5-yl)benzenesulfonamide]
IC50 [3]: 18.7 µM

IC50 [1]: 4.96 µM | IC50 [2]: 0.732 µM
SMILES: CN(c1cc(F)c(S(=O)(=O)Nc2nccs2)cc1Cl)[C@H]1CCN(Cc2ccccc2)C1 [Example 39, (S)-4-((1-benzylpyrrolidin-3-yl)(methyl)amino)-5-chloro-2-fluoro-N-(thiazol-2-yl)benzenesulfonamide bis(trifluoroacetic acid) salt]
IC50 [3]: 13.1 µM

IC50 [1]: 4.38 µM | IC50 [2]: 0.155 µM
SMILES: C[C@@H](c1ccccc1)N1CC[C@H](N(C)c2ccc(S(=O)(=O)Nc3nccs3)cc2Cl)C1 [Example 42, 3-chloro-4-(methyl((S)-1-((S)-1-phenylethyl)pyrrolidin-3-yl)amino)-N-(thiazol-2-yl)benzenesulfonamide]
IC50 [3]: 9.11 µM

IC50 [1]: 10.5 µM | IC50 [2]: 3.67 µM
SMILES: COc1ccc(CN2CCC(Oc3ccc(S(=O)(=O)Nc4nccs4)cc3Cl)CC2)cc1 [Example 48, 3-chloro-4-((1-(4-methoxybenzyl)piperidin-4-yl)oxy)-N-(thiazol-2-yl)benzenesulfonamide]
IC50 [3]: 7.82 µM
